US20030236202A1, “Natural products and derivatives thereof for protection against neurodegenerative diseases” (priority 2002, published 2003)

Tests used:
[1] = Compound in cerebrospinal fluid of rats after oral administration (gas chromatography); assay type: in vivo, rat; details: rats which had received tyrosol orally
[2] = test system: primary hippocampal cultures from rat; test: Neuroprotection: rescue of neuronal cells from neurotoxin-induced apoptosis; assay type: cell-based; details: 50 μM
Procedure: The capacity of two phenolic compounds to rescue neuronal cells from different kind of stressors was tested. To primary hippocampal cultures from rat, different neurotoxins (glutamate, hydrogen peroxide or beta-amyloid peptide) were added in such concentrations that in half of the cells apoptosis was induced. Then, together with the toxins, hydroxytyrosol or tyrosol were added in a final concentration of 50 μM, and the cells were incubated for 24 h. at 37° C. Subsequently, apoptosis was measured in the cell cultures and the number of cells that were protected by this treatment as compared to a control was calculated. […] Hydroxytyrosol protected around 60% of the cells against hydrogen peroxide, 35% against glutamate-induced neurotoxicity, and 45% against beta-amyloid induced apoptosis.

[3] = Binding of metal ions
[4] = test system: Beta-amyloid peptide (1-40); test: Prevention of metal-induced beta-amyloid precipitation (turbidometric assay); details: 25 μM compound, 10 μM beta-amyloid (1-40)
Procedure: Therefore, an experiment was performed to study its capacity to solubilize beta-amyloid peptide from insoluble aggregates. Beta-amyloid peptide (1-40) was brought to 10 μM in 150 mM NaCl, 50 mM HEPES (pH 7.4), and mixed with 10 μM CuCl2 or 10 μM FeCl3. Precipitation of beta-amyloid peptide by copper and iron was measured by a turbidometric assay (Huang et al. J. Biol. Chem. 1997, 272(42), 26464-70). Copper- and iron-induced turbidity was almost completely abolished (>90%) by the presence of 25 μM hydroxytyrosol.

[5] = Total antioxidant capacity of cerebrospinal fluid after oral administration; assay type: in vivo; details: rat, 100 mg oral, after 15 min
Procedure: Several rats were given 100 mg hydroxytyrosol by oral administration. After 15 min a small amount of cerebrospinal fluid was taken from the rat and analysed for the presence of hydroxytyrosol. Also the total antioxidant capacity in this fluid was measured and compared with a control. The detection of hydroxytyrosol was accomplished by gas chromatography and concentrations were determined by a standard curve. Hydroxytyrosol reached a concentration between 0.1 and 0.2 mM in cerebrospinal fluid after 15 minutes of oral administration. Moreover, the total antioxidant capacity of cerebrospinal fluid increased by 35% under these conditions as compared to a control.

[6] = target: T1, monoamine oxidase B (MAO-B) (Rattus norvegicus, UniProt P19643); test: Monoamine oxidase inhibition, purified mitochondria from rat brain tissue; assay type: biochemical; details: benzylamine (300 μM) as substrate
T1 construct: MAO-B enzyme activities were measured using purified mitochondria from rat brain tissue; from tissue; host or cells: purified mitochondria from rat brain tissue
T1 sequence (P19643 1-520): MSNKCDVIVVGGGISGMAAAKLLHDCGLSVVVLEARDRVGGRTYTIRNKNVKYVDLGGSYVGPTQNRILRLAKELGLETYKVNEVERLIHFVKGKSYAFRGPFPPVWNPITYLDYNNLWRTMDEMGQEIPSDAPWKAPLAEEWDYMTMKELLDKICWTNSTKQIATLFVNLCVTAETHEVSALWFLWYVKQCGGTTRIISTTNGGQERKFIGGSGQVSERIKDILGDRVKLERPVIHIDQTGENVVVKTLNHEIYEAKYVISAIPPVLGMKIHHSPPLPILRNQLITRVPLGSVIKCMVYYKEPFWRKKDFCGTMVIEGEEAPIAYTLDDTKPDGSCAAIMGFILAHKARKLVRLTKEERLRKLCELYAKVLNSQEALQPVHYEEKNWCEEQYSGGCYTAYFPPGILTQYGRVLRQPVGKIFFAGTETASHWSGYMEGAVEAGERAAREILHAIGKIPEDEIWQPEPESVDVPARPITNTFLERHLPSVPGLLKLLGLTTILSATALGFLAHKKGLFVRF
Procedure: We determined the IC50 of hydroxytyrosol for monoamine oxidase B (MAO-B). Therefore, MAO-B enzyme activities were measured using purified mitochondria from rat brain tissue as described previously (Holt et al. Anal. Biochem. 1997, 244, 384-392). Benzylamine (300 μM) was used as a substrate for MAO-B and the IC50 was calculated by adding different amounts of hydroxytyrosol to the enzyme assay.

[7] = 24 h at 37° C., toxin inducing apoptosis in half of the cells

SMILES | Tyrosol in cerebrospinal fluid (in words) [1] | Protection of cells from dying (in words) ([2]; 24 h, glutamate, hydrogen peroxide or beta-amyloid peptide) | Binding of iron, zinc and copper ions (in words) [3] | Copper-induced turbidity abolished ([4]; 10 μM CuCl2, pH 7.4) [%] | Iron-induced turbidity abolished ([4]; 10 μM FeCl3, pH 7.4) [%] | Increase of total antioxidant capacity of cerebrospinal fluid as compared to a control [5] [%] | Cells protected against beta-amyloid induced apoptosis [2, 7] [%] | Cells protected against glutamate-induced neurotoxicity [2, 7] [%] | Cells protected against hydrogen peroxide [2, 7] | IC50 [6] [µM]
OCCc1ccc(O)cc1 [Tyrosol, 2-(4-hydroxyphenyl) ethanol] | detected | protected part of the cells from dying | – | – | – | – | – | – | – | –
OCCc1ccc(O)c(O)c1 [Hydroxytyrosol, 2-(3,4-dihydroxyphenyl) ethanol] | – | – | high affinity | > 90 | > 90 | 35 | ~45 | ~35 | around 60% | 16.3 ± 1.3
